System: blood GIP level
Assay: GIP elevation inhibitory activity of D-mannitol (single dietary test)
Type: in vivo, mice (C57BL/6J)
Description: Powdery feeds were prepared by using D-mannitol (manufactured by Kao Corp.) in accordance with the compositions listed in the following table and used as test samples. [table] Powdery feeds (Table 1) were weighed so as to have the same calories in each group and freely fed for 30 minutes to mice (C57BL/6J, CLEA Japan, Inc, male, 10-weeks old, n=10) fasted for 18 hours or more. During this free feeding, 200 mg of the feed was given to the high fat diet (HF) group; whereas, 216 mg of the feed to the D-mannitol group. Note that the calorie of D-mannitol was calculated as 0. Before feeding, and 30, 60 and 120 minutes after feeding a powdery-feed test sample, the mice were anesthetized with isoflurane, blood was sampled from the orbit (heparinized hematocrit micro blood collection tube, manufactured by VITREX) and the blood GIP level was measured. The amount of GIP was measured in accordance with ELISA method (Rat/Mouse GIP (total) ELISA (Millipore)). Each value was shown by mean±standard deviation. Statistically significant difference between the groups was obtained by applying Student's t-test to the HF group (*: p<0.05).

OC[C@@H](O)[C@@H](O)[C@H](O)[C@H](O)CO [D-mannitol]
inhibitory activity against GIP elevation (conclusion of single dietary test in mice): has an inhibitory activity against GIP elevation | blood GIP concentration value at 30 minutes after intake of the sample (mice C57BL/6J male, fasted 18 hours or more, 216 mg high fat powdery feed containing D-mannitol, compared to HF group, Student's t-test p<0.05, FIG. 1A): significantly low | area under the curve of GIP concentration up to 120 minutes after intake of the sample (mice C57BL/6J male, fasted 18 hours or more, 216 mg high fat powdery feed containing D-mannitol, compared to control (HF) group, p<0.05, FIG. 1B): significantly low

Source: patent publication US20210212959A1, “GIP ELEVATION INHIBITOR” (KAO CORPORATION, priority 2018, published 2021)
